# Values quoted from earlier work, collected in patent publication US8821904B2, “Topical composition and use thereof for the prophylaxis and the treatment of defects connected to inflammatory dermopathies” (Skinius S.R.L., priority 2010, dated 2014).
# Test system: seborrhoeic eczema
# Conditions: topically applied, after four weeks of treatment
smiles,measurement,value
CC(=O)N1CCN(c2ccc(OCC3COC(Cn4ccnc4)(c4ccc(Cl)cc4Cl)O3)cc2)CC1 (stereo not shown) [ketoconazole],"Improvement of seborrhoeic eczema, percentage of the cases",75%
